Source: article PMC11206297, “Targeting NAD Metabolism: Rational Design, Synthesis and In Vitro Evaluation of NAMPT/PARP1 Dual-Target Inhibitors as Anti-Breast Cancer Agents” (Molecules, 2024)

Columns and labels:
[1] = tested on: MCF-7; assay: MTT cell viability assay, MCF-7; format: cell-based; conditions: Homo sapiens, MCF7, 72 h, mean ± SEM, read-out: Cytotoxicity IC50 MCF-7
Experimental: (§1) MDA-MB-468, MDA-MB-231, MCF-7, and MCF-10A cell lines were obtained from the National Collection of Authenticated Cell Culture, China. The cells were cultured in DMEM medium supplemented with 10% FBS and 1% penicillin/streptomycin, and maintained at 37 °C in a humidified atmosphere with 5% CO2.
(§2) Cell viability was assessed using the MTT assay. Cells were seeded at a density of 3 × 10^3 cells per well in a 96-well plate and treated with various concentrations (0.05, 0.2, 0.8, 3.2, 6.4, 12.8 µM) of the compounds for 72 h. After incubation, 100 µL of MTT solution (0.5 mg/mL) was added to each well and further incubated for 4 h. The resulting formazan crystals were dissolved in 150 µL of DMSO, and the absorbance was measured at 570 nm using a microplate reader.

[2] = molecular target: NAMPT (Homo sapiens, UniProt P43490); assay: NAMPT enzymatic inhibition assay (fluorescence, coupled NMNAT/alcohol dehydrogenase); format: biochemical; conditions: for inhibition at 0.1 µM / NAMPT Inhibition Rate: duplicate, average, 0.1 μM; for inhibition at 0.1 µM: read-out: NAMPT Inhibition Rate
[3] = tested on: MDA-MB-231; assay: MTT cell viability assay, MDA-MB-231; format: cell-based; conditions: Homo sapiens, 72 h, mean ± SEM, read-out: Cytotoxicity IC50 MDA-MB-231
Experimental: as §1, §2

[4] = tested on: MDA-MB-468; assay: MTT cell viability assay, MDA-MB-468; format: cell-based; conditions: Homo sapiens, 72 h, mean ± SEM, read-out: Cytotoxicity IC50 MDA-MB-468
Experimental: as §1, §2

[5] = tested on: MCF-10A; assay: MTT cell viability assay, MCF-10A normal breast epithelial cells; format: cell-based, human; conditions: Homo sapiens, 72 h; 3.0 μM; MCF-10A; mean ± SEM; read-out: Cell Survival Rate
Experimental: as §1, §2

[6] = molecular target: PARP1 (Homo sapiens, UniProt P09874); assay: PARP1 enzymatic inhibition assay (ELISA, chemiluminescence); format: biochemical; conditions: for IC50: mean ± SD of at least two independent experiments in duplicate; for inhibition at 0.5 µM: duplicate, average, read-out: PARP1 Inhibition Rate
Sequence of PARP1 (P09874 whole entry): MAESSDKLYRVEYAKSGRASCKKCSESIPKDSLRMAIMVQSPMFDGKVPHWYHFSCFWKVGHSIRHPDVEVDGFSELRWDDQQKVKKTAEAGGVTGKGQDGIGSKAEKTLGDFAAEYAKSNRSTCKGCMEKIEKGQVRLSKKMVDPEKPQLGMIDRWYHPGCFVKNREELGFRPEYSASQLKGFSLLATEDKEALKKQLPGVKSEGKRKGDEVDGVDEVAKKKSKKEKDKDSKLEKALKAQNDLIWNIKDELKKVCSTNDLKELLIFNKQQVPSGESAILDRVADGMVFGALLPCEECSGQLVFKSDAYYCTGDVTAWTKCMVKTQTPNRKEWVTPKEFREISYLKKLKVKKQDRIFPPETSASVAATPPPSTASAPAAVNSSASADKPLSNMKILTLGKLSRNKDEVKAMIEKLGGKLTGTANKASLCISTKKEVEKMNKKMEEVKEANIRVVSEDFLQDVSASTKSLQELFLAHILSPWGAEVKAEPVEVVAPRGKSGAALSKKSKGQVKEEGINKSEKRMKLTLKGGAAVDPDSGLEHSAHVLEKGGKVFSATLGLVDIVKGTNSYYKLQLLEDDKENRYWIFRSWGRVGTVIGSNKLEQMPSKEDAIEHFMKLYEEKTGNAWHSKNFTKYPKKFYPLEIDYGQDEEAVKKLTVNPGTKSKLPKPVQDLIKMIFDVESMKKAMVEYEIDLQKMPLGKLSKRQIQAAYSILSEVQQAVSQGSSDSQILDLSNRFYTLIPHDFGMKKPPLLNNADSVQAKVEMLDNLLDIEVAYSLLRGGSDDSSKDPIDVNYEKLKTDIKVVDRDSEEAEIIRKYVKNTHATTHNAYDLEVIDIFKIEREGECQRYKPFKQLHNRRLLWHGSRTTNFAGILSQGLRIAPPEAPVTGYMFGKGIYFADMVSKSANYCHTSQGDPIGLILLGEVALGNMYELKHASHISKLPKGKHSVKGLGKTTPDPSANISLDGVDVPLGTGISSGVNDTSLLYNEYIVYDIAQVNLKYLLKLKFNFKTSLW

Sequence of NAMPT (P43490 whole entry): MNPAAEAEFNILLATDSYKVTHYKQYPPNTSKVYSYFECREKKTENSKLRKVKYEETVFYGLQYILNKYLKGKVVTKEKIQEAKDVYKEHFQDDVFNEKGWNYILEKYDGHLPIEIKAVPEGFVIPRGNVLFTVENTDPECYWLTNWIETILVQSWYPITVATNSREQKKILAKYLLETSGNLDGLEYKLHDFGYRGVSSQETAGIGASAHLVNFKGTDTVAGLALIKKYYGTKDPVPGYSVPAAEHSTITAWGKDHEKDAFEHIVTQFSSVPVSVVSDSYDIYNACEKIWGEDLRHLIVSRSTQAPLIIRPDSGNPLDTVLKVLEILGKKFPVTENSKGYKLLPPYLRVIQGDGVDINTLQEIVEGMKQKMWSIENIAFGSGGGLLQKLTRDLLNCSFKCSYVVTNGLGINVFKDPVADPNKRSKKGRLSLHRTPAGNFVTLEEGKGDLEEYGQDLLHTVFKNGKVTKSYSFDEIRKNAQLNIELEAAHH

melting point | inhibition at 0.1 µM [2] | IC50 [6] | fold decrease in inhibitory capacity against PARP1 compared to Olaparib ([6]; ratio of IC50 values) | IC50 ([2]; mean ± SD of at least two independent experiments in duplicate) | NAMPT Inhibition Rate [2] | inhibition at 0.5 µM [6] | Structure (SMILES) | IC50 [1] | IC50 [3] | IC50 [4] | viability at 3 µM [5]
189 to 190 °C | 83% | 0.009 ± 0.002 µM | 4.5 fold | – | – | – | O=C(c1cc(Cc2n[nH]c(=O)c3ccccc23)ccc1F)N1CCN(S(=O)(=O)c2ccc(NC(=S)NCc3cccnc3)cc2)CC1 [DDY01, 1-(4-((4-(2-Fluoro-5-((4-oxo-3,4-dihydrophthalazin-1-yl)methyl)benzoyl)piperazin-1-yl)sulfonyl)phenyl)-3-(pyridin-3-ylmethyl)thiourea] | 8.48 ± 0.18 µM | 6.17 ± 0.27 µM | 5.09 ± 0.09 µM | 67.1 ± 1.73%
120 to 121 °C | – | 0.025 ± 0.007 µM | – | 0.055 ± 0.019 µM | – | – | O=C(NCc1cccnc1)Nc1ccc(S(=O)(=O)N2CCN(C(=O)CCc3nc4ccccc4c(=O)[nH]3)CC2)cc1 [DDY03, 1-(4-((4-(3-(4-Oxo-3,4-dihydroquinazolin-2-yl)propanoyl)piperazin-1-yl)sulfonyl)phenyl)-3-(pyridin-3-ylmethyl)urea] | 11.2 ± 0.79 µM | 10.9 ± 0.68 µM | 8.17 ± 0.31 µM | 80.7 ± 1.5%
125 to 126 °C | 84 to 86% | – | – | – | 84% | 70% | NC(=O)c1ccccc1OCc1ccc(F)c(C(=O)N2CCN(S(=O)(=O)c3ccc(NC(=S)NCc4cccnc4)cc3)CC2)c1 [DDY04, 2-((4-Fluoro-3-(4-((4-(3-(pyridin-3-ylmethyl)thioureido)phenyl)sulfonyl)piperazine-1-carbonyl)benzyl)oxy)benzamide] | 13.4 ± 2.41 µM | 13.5 ± 0.66 µM | 14.1 ± 0.3 µM | 98.4 ± 1.74%
119 to 120 °C | 84 to 86% | – | – | – | 86% | – | NC(=O)c1ccccc1OCc1ccc(F)c(C(=O)N2CCN(S(=O)(=O)c3ccc(NC(=O)NCc4cccnc4)cc3)CC2)c1 [DDY05, 2-((4-Fluoro-3-(4-((4-(3-(pyridin-3-ylmethyl)ureido)phenyl)sulfonyl)piperazine-1-carbonyl)benzyl)oxy)benzamide] | > 20 µM | 10.2 ± 0.29 µM | 8.02 ± 0.74 µM | 88.7 ± 2.41%
– | 48% | – | – | – | – | 89% | NC(=O)c1ccccc1OCc1ccc(F)c(C(=O)N2CCN(S(=O)(=O)Cc3ccc(NC(=O)NCc4cccnc4)cc3)CC2)c1 [DDY06, 2-((4-Fluoro-3-(4-((4-(3-(pyridin-3-ylmethyl)ureido)benzyl)sulfonyl)piperazine-1-carbonyl)benzyl)oxy)benzamide] | 7.95 ± 0.34 µM | 15.4 ± 2.15 µM | 17.2 ± 1.57 µM | 69.5 ± 2.56%
122 to 123 °C | 84% | – | – | – | – | 92% | NC(=O)c1cc(F)ccc1OCc1ccc(F)c(C(=O)N2CCN(S(=O)(=O)c3ccc(NC(=O)NCc4cccnc4)cc3)CC2)c1 [DDY07, 5-Fluoro-2-((4-fluoro-3-(4-((4-(3-(pyridin-3-ylmethyl)ureido)phenyl)sulfonyl)piperazine-1-carbonyl)benzyl)oxy)benzamide] | 13.5 ± 0.16 µM | 8.1 ± 0.71 µM | 7.43 ± 0.23 µM | 70.73 ± 0.07%
202 to 203 °C | 80% | – | – | – | – | 69% | NC(=O)c1ccccc1OCc1cccc(C(=O)N2CCN(S(=O)(=O)c3ccc(NC(=O)NCc4cccnc4)cc3)CC2)c1 [DDY08, 2-((3-(4-((4-(3-(Pyridin-3-ylmethyl)ureido)phenyl)sulfonyl)piperazine-1-carbonyl)benzyl)oxy)benzamide] | 9.18 ± 0.44 µM | 11.1 ± 0.19 µM | 12.9 ± 1.69 µM | 72.6 ± 3.46%
147 to 148 °C | 86% | – | – | – | – | 78% | NC(=O)c1cc(F)ccc1OCc1cccc(C(=O)N2CCN(S(=O)(=O)c3ccc(NC(=O)NCc4cccnc4)cc3)CC2)c1 [DDY09, 5-Fluoro-2-((3-(4-((4-(3-(pyridin-3-ylmethyl)ureido)phenyl)sulfonyl)piperazine-1-carbonyl)benzyl)oxy)benzamide] | 11 ± 0.82 µM | 8.7 ± 0.24 µM | 6.98 ± 0.57 µM | 66.9 ± 2.45%
